Test results taken from ChEMBL document CHEMBL1201862, “PubChem BioAssay data set” (2004).
One block for each compound: values may come before it. Calls of active or inactive are those of the source. For most assays here, no stated cut-off is given here; in the data, actives have a measured AC50 and inactives only a lower limit.

Columns and labels:
Trypsin = Trypsin (Sus scrofa, UniProt P00761); assay: trypsin protease activity blockade – biochemical, quenched peptide fluorescence, cherry-pick, selectivity assay for Rce1 protease inhibitor project, dose response (AID 488789)
CAAX prenyl protease 2 = CAAX prenyl protease 2 (Homo sapiens, UniProt Q9Y256); assay: inhibition of Ras-converting CAAX protease Rce1 – biochemical, yeast membranes, quenched-peptide fluorescence, cherry-pick, dose response (AID 588849)
[1] = molecular target: Luciferin 4-monooxygenase (Photuris pensylvanica, UniProt Q27757); assay: inhibition of Cell Titer Glo luciferase signal – biochemical, luminescence, cherry-picks, counter-screen for HSF-1 reporter inhibitor project, dose response (AID 588847)
[2] = blockers of bursicon-stimulated LGR2 cAMP reporter – cell-based, HEK293, CRE-luciferase reporter, cherry pick, set 2, dose response (AID 743343); format: functional;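 further: transfected cells were stimulated with diluted bursicon conditioned medium after compound addition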
[3] = blockade of melanocortin 4 receptor signaling – cell-based, plate reader, cherry pick, counter-screen for LGR2 antagonist project, dose response (AID 743444); format: functional;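 further: transfected HEK 293 cells stimulated with alpha-MSH peptide; potency of inhibitors of the alpha-MSH evoked signal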
Escherichia coli = assay: microbe, parasite or virus in culture

Sequence of CAAX prenyl protease 2 (Q9Y256 whole entry): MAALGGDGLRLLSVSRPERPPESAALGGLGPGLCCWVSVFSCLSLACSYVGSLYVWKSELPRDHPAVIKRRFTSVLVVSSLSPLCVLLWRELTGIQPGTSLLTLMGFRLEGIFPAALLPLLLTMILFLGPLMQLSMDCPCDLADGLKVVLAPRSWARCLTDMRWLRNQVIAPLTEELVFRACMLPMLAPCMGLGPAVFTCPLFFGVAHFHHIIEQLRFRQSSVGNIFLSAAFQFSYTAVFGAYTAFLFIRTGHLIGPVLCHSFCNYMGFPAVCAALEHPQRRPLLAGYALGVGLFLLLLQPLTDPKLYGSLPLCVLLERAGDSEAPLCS
Sequence of Trypsin (P00761 whole entry): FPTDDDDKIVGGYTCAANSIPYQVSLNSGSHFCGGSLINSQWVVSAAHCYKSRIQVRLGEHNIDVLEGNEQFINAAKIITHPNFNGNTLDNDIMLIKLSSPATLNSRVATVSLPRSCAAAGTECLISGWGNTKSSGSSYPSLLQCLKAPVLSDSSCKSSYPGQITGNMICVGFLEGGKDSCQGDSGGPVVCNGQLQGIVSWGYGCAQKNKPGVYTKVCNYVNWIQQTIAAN
Sequence of Luciferin 4-monooxygenase (Q27757 whole entry): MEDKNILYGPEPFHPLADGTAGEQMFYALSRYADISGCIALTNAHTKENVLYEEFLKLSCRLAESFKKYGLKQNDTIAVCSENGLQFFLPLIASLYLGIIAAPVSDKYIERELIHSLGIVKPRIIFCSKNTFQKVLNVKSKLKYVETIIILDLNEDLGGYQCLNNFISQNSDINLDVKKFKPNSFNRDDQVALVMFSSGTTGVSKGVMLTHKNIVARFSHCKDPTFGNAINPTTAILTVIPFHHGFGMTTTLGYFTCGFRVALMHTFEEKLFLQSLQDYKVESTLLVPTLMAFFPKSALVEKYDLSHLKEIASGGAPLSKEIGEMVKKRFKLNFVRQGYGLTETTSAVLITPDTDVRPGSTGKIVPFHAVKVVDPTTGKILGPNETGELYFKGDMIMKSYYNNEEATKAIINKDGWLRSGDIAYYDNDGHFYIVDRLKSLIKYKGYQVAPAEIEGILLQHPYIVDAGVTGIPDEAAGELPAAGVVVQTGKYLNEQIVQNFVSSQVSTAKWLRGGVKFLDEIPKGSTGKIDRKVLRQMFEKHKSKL

AC50 (Trypsin): 32.4 µM (active)
AC50 (CAAX prenyl protease 2): > 100 µM (inactive)
Compound: CC(=O)NN1C(=O)c2ccccc2NC1c1ccoc1 (stereo unspecified)

Compound: CCS(=O)(=O)N1Cc2ccccc2CC1C(=O)Nc1nc2ccccc2s1 (stereo unspecified)
AC50 [1]: 15.2 µM (active)
AC50 [2]: 4.13 µM (active)
AC50 [3]: 4.56 µM (active)

Compound: COC(=O)c1ccc(Cl)cc1NC(=O)/C=C/c1ccc(C)o1
AC50 (Escherichia coli): 83 µM (active)
